How the values were obtained:
Type in all cases: physicochemical
[1] = Relative ΔOD at Saturation Test; conditions: ΔOD at saturation (Band A)/ΔOD at saturation (Band B)×100
Excerpt: In accordance with the present invention, it has now been discovered that certain novel indeno[2,1-f]naphtho[1,2-b]pyrans having two absorption bands in the activated (colored) state, an acceptable fade rate, high activated intensity, a high coloration rate and a rating of 80 or higher in the Relative ΔOD at Saturation Test may be prepared. The Relative ΔOD at Saturation Test is described in Example 21. The ratings of the test are defined herein as the result obtained when the optical density of band "A" is divided by the optical density of band "B" and multiplied by 100. It is believed that compounds having a rating of 80 or higher are most valuable for formulating neutral grays, greens and browns for commercial photochromic ophthalmic eyeware.
(§1) Testing was done with the photochromic compounds described in Examples 1 through 20 and Comparative Examples 1 through 3 in the following manner. A quantity of photochromic compound calculated to yield a 1.5×10^-3 molal solution was added to a flask containing 50 grams of a monomer blend of 4 parts ethoxylated bisphenol A dimethacrylate (BPA 2EO DMA), 1 part poly(ethylene glycol) 600 dimethacrylate, and 0.033 weight percent 2,2'-azobis(2-methyl propionitrile) (AIBN). The photochromic compound was dissolved into the monomer blend by stirring and gentle heating, if necessary. After a clear solution was obtained, it was poured into a flat sheet mold having the interior dimensions of 2.2 mm×6 inches (15.24 cm)×6 inches (15.24 cm). The mold was sealed and placed in a horizontal air flow, programmable oven programmed to increase the temperature from 40° C. to 95° C. over a 5 hour interval, hold the temperature at 95° C. for 3 hours, lower it to 60° C. over a 2 hour interval and then hold it at 60° C. for 16 hours. After the mold was opened, the polymer sheet was cut using a diamond blade saw into 2 inch (5.1 centimeters) test squares.
(§2) The photochromic test squares of Part A were tested for photochromic response rates on an optical bench. Prior to testing on the optical bench, the photochromic test squares were exposed to 365 nanometer ultraviolet light for about 15 minutes to activate the photochromic compounds and then placed into a 76° C. oven for about 15 minutes to bleach the photochromic compounds. The test squares were then cooled to room temperature, exposed to fluorescent room lighting for at least 2 hours and then kept covered for at least 2 hours prior to testing on an optical bench maintained at 72° F. (22.2° C.). The bench was fitted with a 250 watt Xenon arc lamp, a remote controlled shutter, a copper sulfate bath acting as a heat sink for the arc lamp, a Schott WG-320 nm cut-off filter which removes short wavelength radiation; neutral density filter(s) and a sample holder in which the square to be tested was inserted. The power output of the optical bench, i.e., the dosage of light that the sample lens would be exposed to, was calibrated with a photochromic test square used as a reference standard. […] The UV-A detector was placed into the sample holder and the light output was measured. Adjustments to the power output were made by increasing or decreasing the lamp wattage or by adding or removing neutral density filters in the light path.
Change in optical density (ΔOD) was determined by inserting a test square in the bleached state into the sample holder, adjusting the transmittance scale to 100%, opening the shutter from the Xenon lamp to provide ultraviolet radiation to change the test square from the bleached state to an activated (i.e., darkened) state, measuring the transmittance in the activated state, and calculating the change in optical density according to the formula: ΔOD=log(100/% Ta), where % Ta is the percent transmittance in the activated state and the logarithm is to the base 10. […]

[2] = photochromic response of test squares on an optical bench (sensitivity, saturation optical density, bleach rate); conditions: for ΔOD @ Saturation (Band A) / ΔOD @ Saturation (Band B): UV exposure 15 minutes; for ΔOD @ Saturation (Band A) / Sensitivity ΔOD/MIN (Band A) / ΔOD @ Saturation (Band B) / Sensitivity ΔOD/MIN (Band B): 72° F. (22.2° C.), polymer test square; for Sensitivity ΔOD/MIN (Band A) / Sensitivity ΔOD/MIN (Band B): first five (5) seconds of UV exposure, expressed per minute; for Bleach Rate T 1/2: measured at band B, room temperature (72° F., 22.2° C.) after removal of activating light
Protocol: as §1, §2
A monitoring, collimated beam of light from a tungsten lamp was passed through the square at a small angle (approximately 30°) normal to the square. After passing through the square, the light from the tungsten lamp was directed to a detector through Spectral Energy Corp. GM-200 monochromator set at the previously determined visible lambda max of the photochromic compound being measured. The output signals from the detector were processed by a radiometer.
Change in optical density (ΔOD) was determined by inserting a test square in the bleached state into the sample holder, adjusting the transmittance scale to 100%, opening the shutter from the Xenon lamp to provide ultraviolet radiation to change the test square from the bleached state to an activated (i.e., darkened) state, measuring the transmittance in the activated state, and calculating the change in optical density according to the formula: ΔOD=log(100/% Ta), where % Ta is the percent transmittance in the activated state and the logarithm is to the base 10.
The ΔOD/Min, which represents the sensitivity of the photochromic compound's response to UV light, was measured over the first five (5) seconds of UV exposure, then expressed on a per minute basis. The saturation optical density (ΔOD@ Saturation) was taken under identical conditions as the ΔOD/Min, except UV exposure was continued for 15 minutes. […]

[3] = lambda max (Vis) of activated photochromic test squares in a Varian Cary 3 uv-visible spectrophotometer; conditions: activated form in test square
Protocol: as §1
The lambda max (Vis) is the wavelength in the visible spectrum at which the maximum absorption of the activated (colored) form of the photochromic compound in a test square occurs. The lambda max (Vis) wavelengths reported in Table 1 were determined by testing the photochromic test square polymerizates of Part A in a Varian Cary 3 uv-visible spectrophotometer. The bleach rate (T 1/2) is the time interval in seconds for the absorbance of the activated form of the photochromic compound in the test squares to read one half the highest absorbance at room temperature (72° F., 22.2° C.) after removal of the source of activating light.
For each lambda max visible, the corresponding optical density (Δ OD/Min and Δ OD at saturation) for the desired compounds of the Examples and Comparative Examples are tabulated in Table 1 for the two bands (A and B) of peak absorption for each compound. Table 1 also includes the bleach rate (T 1/2) for each of the compounds as measured at band B. The ratings of the Relative Δ OD at Saturation Test for the bands A and B of each of the Examples and Comparative Examples are calculated as follows: Δ OD at saturation (Band A)/Δ OD at saturation (Band B)×100.

In the case of CCC1(O)c2ccccc2-c2c1c1c(c3cc(OC)c(OC)cc23)OC(c2ccc(OC)cc2)(c2ccc(N3CCOCC3)cc2)C=C1 (stereo not drawn) [Example 17, 6,7-dimethoxy-3-(4-methoxyphenyl)-3-(4-morpholinophenyl)-13-hydroxy-13-ethyl-3H,13H-indeno[2,1-f]naphtho[1,2-b]pyran], the “Relative ΔOD at Saturation (rating)” value [1] is reported as 104, the “ΔOD @ Saturation (Band A)” value [2] is reported as 0.25 and the “Sensitivity ΔOD/MIN (Band A)” value [2] is reported as 0.21 ΔOD/MIN. For the same compound, the “ΔOD @ Saturation (Band B)” value [2] was 0.24, the “Sensitivity ΔOD/MIN (Band B)” value [2] was 0.18 ΔOD/MIN and the “Bleach Rate T 1/2” value [2] was 1.4 min. For the same compound, the “λ MAX Vis (Band A)” value [3] was 480 nm and the “λ MAX Vis (Band B)” value [3] was 603 nm.
With CCC1(O)c2ccccc2-c2c1c1c(c3cc(OC)c(OC)cc23)OC(c2ccc(OC)cc2)(c2ccc(OC)cc2)C=C1 (stereo not drawn) [Example 5, 3,3-di(4-methoxyphenyl)-6,7-dimethoxy-13-hydroxy-13-ethyl-3H-13H-indeno[2,1-f]naphtho[1,2-b]pyran] the “Relative ΔOD at Saturation (rating)” value [1] was 155, the “ΔOD @ Saturation (Band A)” value [2] was 0.42 and the “Sensitivity ΔOD/MIN (Band A)” value [2] was 0.26 ΔOD/MIN. For the same compound, the “ΔOD @ Saturation (Band B)” value [2] was 0.27, the “Sensitivity ΔOD/MIN (Band B)” value [2] was 0.19 ΔOD/MIN and the “Bleach Rate T 1/2” value [2] was 1.45 min. For the same compound, the “λ MAX Vis (Band A)” value [3] was 458 nm and the “λ MAX Vis (Band B)” value [3] was 584 nm.
With COc1ccc(C2(c3ccc(OC)cc3)C=Cc3c4c(c5cc(OC)c(OC)cc5c3O2)-c2cc(OC)c(OC)cc2C4(C)C)cc1 [Example 1, 3,3-di(4-methoxyphenyl)-6,7,10,11-tetramethoxy-13,13-dimethyl-3H,13H-indeno[2,1-f]naphtho[1,2-b]pyran] the “Relative ΔOD at Saturation (rating)” value [1] was 125, the “ΔOD @ Saturation (Band A)” value [2] was 0.99 and the “Sensitivity ΔOD/MIN (Band A)” value [2] was 0.33 ΔOD/MIN. For the same compound, the “ΔOD @ Saturation (Band B)” value [2] was 0.79, the “Sensitivity ΔOD/MIN (Band B)” value [2] was 0.24 ΔOD/MIN and the “Bleach Rate T 1/2” value [2] was 8.77 min. For the same compound, the “λ MAX Vis (Band A)” value [3] was 445 nm and the “λ MAX Vis (Band B)” value [3] was 611 nm.
In the case of COc1ccc(C2(c3ccc(N4CCOCC4)cc3)C=Cc3c4c(c5cc(OC)c(OC)cc5c3O2)-c2ccccc2C4(C)O)cc1 (stereo not drawn) [Example 19, 3-(4-methoxyphenyl)-3-(4-morpholinophenyl)-6,7-dimethoxy-13-hydroxy-13-methyl-3H,13H-indeno[2,1-f]naphtho[1,2-b]pyran], the “Relative ΔOD at Saturation (rating)” value [1] is reported as 97, the “ΔOD @ Saturation (Band A)” value [2] is reported as 0.34 and the “Sensitivity ΔOD/MIN (Band A)” value [2] is reported as 0.18 ΔOD/MIN. The “ΔOD @ Saturation (Band B)” value [2] was 0.35, the “Sensitivity ΔOD/MIN (Band B)” value [2] was 0.22 ΔOD/MIN and the “Bleach Rate T 1/2” value [2] was 1.63 min. The “λ MAX Vis (Band A)” value [3] was 481 nm and the “λ MAX Vis (Band B)” value [3] was 603 nm.
With COc1cc2c(cc1OC)C(C)(C)c1c3c(c4cc(OC)c(OC)cc4c1-2)OC(c1ccccc1)(c1ccc(N2CCOCC2)cc1)C=C3 (stereo not drawn) [Example 2, 3-phenyl-3-(4-morpholinophenyl)-6,7,10,11-tetramethoxy-13,13-dimethyl-3H,13H-indeno[2,1-f]naphtho[1,2-b]pyran] the “Relative ΔOD at Saturation (rating)” value [1] was 103, the “ΔOD @ Saturation (Band A)” value [2] was 1.10 and the “Sensitivity ΔOD/MIN (Band A)” value [2] was 0.32 ΔOD/MIN. For the same compound, the “ΔOD @ Saturation (Band B)” value [2] was 1.07, the “Sensitivity ΔOD/MIN (Band B)” value [2] was 0.29 ΔOD/MIN and the “Bleach Rate T 1/2” value [2] was 14.2 min. For the same compound, the “λ MAX Vis (Band A)” value [3] was 485 nm and the “λ MAX Vis (Band B)” value [3] was 618 nm.
For CCC1(O)c2cc(OC)c(OC)cc2-c2c1c1c(c3ccccc23)OC(c2ccc(OC)cc2)(c2ccc(OC)cc2)C=C1 (stereo not drawn) [Comp. Ex. 3, 3,3-di(4-methoxyphenyl)-10,11-dimethoxy-13-hydroxy-13-ethyl-3H-13H-indeno[2,1-f]naphtho[1,2-b]pyran, reference compound], the “Relative ΔOD at Saturation (rating)” value [1] was 71, the “ΔOD @ Saturation (Band A)” value [2] was 0.34 and the “Sensitivity ΔOD/MIN (Band A)” value [2] was 0.32 ΔOD/MIN. The “ΔOD @ Saturation (Band B)” value [2] was 0.48, the “Sensitivity ΔOD/MIN (Band B)” value [2] was 0.48 ΔOD/MIN and the “Bleach Rate T 1/2” value [2] was 1.27 min. The “λ MAX Vis (Band A)” value [3] was 445 nm and the “λ MAX Vis (Band B)” value [3] was 600 nm.
